Laboratory results taken from paper PMC10783051 (Microbiology Spectrum, 2023).
Entries after “also recorded” stand apart in the source; their conditions may differ.

Assays:
Streptomyces [1] = conditions: cited from earlier work
Excerpt: Therefore, we hypothesized that Sv may catabolize those exogenous CLPs and use them as nutritional sources. […] (Fig. 2E and F). Extraction of the me ...

Streptomyces [2] = conditions: cited from earlier work
[3] = Sv cultures grown on gelified GA1 ΔbaeJ-mlnA-dfnA CFS; conditions: Streptomyces venezuelae, 28°C, up to 3 days
[4] = confrontation zone between B. velezensis GA1 and S. venezuelae ATCC 10712 on REM solid medium (agar extract); conditions: Streptomyces venezuelae ATCC 10712 / Bacillus velezensis GA1, 26°C, up to 3 days
[5] = Sv cell-free supernatant (CFS); conditions: Streptomyces venezuelae ATCC 10712, 30°C, up to 24 h; time course up to 48 h
[6] = rhizosphere extracts (agar near tomato roots co-inoculated with Bv and Sv, Hoagland solid medium); conditions: Streptomyces venezuelae ATCC 10712 / Bacillus velezensis GA1-GFP on tomato (Solanum lycopersicum var. Moneymaker), 22°C, up to 7 days
[7] = system: S. venezuelae supernatant (secreted enzymes); assay: In vitro degradation of CLPs by S. venezuelae cell-free supernatant; type: in vitro ADME, Streptomyces venezuelae ATCC 10712; conditions: shaking 180 rpm; for degradation of Pseudomonas CLPs by Sv CFS: Pseudomonas CFS (CAA medium) supplemented with 4% (vol/vol) Sv CFS, 24 h at 30°C, UPLC-MS and MS/MS, degraded to different degrees
Description: S. venezuelae cultures were performed on ISP2 medium at 28°C (yeast extract 4 g/L, malt extract 10 g/L, glucose 4 g/L, agar 20 g/L; pH 7.3). On 12 × 12 cm Petri square plates, three stripes (1 × 12 cm) of spores were inoculated with a cotton swab [40 µL of spores suspension (10^7 spores/mL) each], spaced by 3 cm each. The plates were left for 7 days of incubation. Next, the agar media was recovered and placed in Falcon tubes at −20°C for 24 h. Then, the agar media were defrosted at room temperature and centrifuged (8,000 rpm for 20 min). Finally, the supernatant leaked from the agar was collected, filtered sterilized (0.22-µm pore size filters) and stored at −20°C until further use. The heat-treated Sv supernatant was generated by incubating an aliquot of the cell-free supernatant of Sv for 10 min at 98°C. The supernatant was then filtered (0.22-µm pore size filters) and stored at −20°C until further use.
[…] Then the solutions were incubated for 24 h at 30°C with continuous shaking (180 rpm). Next, the solution were centrifuged (1 min at 10,000 rpm), filtered (0.22-µm pore size filters), and analyzed by UPLC-MS.
The degradation assays of Pseudomonas CLPs were performed using CFS generated as described above. They were supplemented by 4% (vol/vol) of S. venezuelae CFS prepared as described previously. Next, the solutions were incubated for 24 h at 30°C with continuous shaking (180 rpm). Then, the solution were centrifuged (1 min at 10,000 rpm), filtered (0.22-µm pore size filters), and analyzed by UPLC-MS.
For the CLP degradation kinetic experiments, surfactin, iturin, and fengycin solutions supplemented with S. venezuelae supernatant were prepared following the same protocol. Twenty microliters of solution was sampled at each time point and directly mixed with 80 µL of acetonitrile to stop enzymatic degradation. Finally, they were stored at −20°C until analysis by UPLC-MS.
All UPLC-MS analyses were performed using an Agilent 1290 Infinity II coupled with a diode array detector and a mass detector (Jet Stream ESI-Q-TOF 6530) in positive mode with the parameters set up as follows: capillary voltage of 3.5 kV, nebulizer pressure of 35 lb/in^2, drying gas of 8 L/min, drying gas temperature of 300°C, flow rate of sheath gas of 11 L/min, sheath gas temperature of 350°C, fragmentor voltage of 175 V, skimmer voltage of 65 V, and octopole radiofrequency of 750 V. Accurate mass spectra were recorded in the m/z range of 300–1,700. For untargeted MS/MS, we used the same MS1 parameters as described. We added MS2 untargeted acquisition mode with the parameters as follows: MS/MS range 50–1,700 m/z; MS/MS scan rate 3 spectra/s; isolation width MS/MS medium (approx. 4 AMU), Decision Engine Native; fixed collision energies of 25 and 40 V for surfactin, 50 V for iturin, and 60 V for fengycin experiments; precursor selection: three for the surfactin experiment, four for the iturin and fengycin experiments, threshold 1,500 (Abs), isotope model common, active exclusion after two spectra and release after 0.5 min, sorting the precursors by charge state then abundance (charge state preference 1). For targeted MS/MS, we used the same MS1 parameters MS/MS range of 50–1,700 m/z or 50–3,200 (when required for Pseudomonas CLPs with mass >1,700 Da), MS/MS scan rate 3 spectra/s, isolation width MS/MS narrow (approx. 1.3 amu), and fixed collision energies 20, 40, and 60V. In all experiments, a C18 Acquity UPLC ethylene bridged hybrid column (2.1 mm × 50 mm × 1.7 µm; Waters Corporation, Milford, MA, USA) was used at a flow rate of 0.6 mL/min and a temperature of 40°C. The injection volume was 20 µL, and the diode array detector scanned a wavelength spectrum between 190 and 600 nm. Unless otherwise mentioned, a gradient of acidified water (0.1% formic acid) (solvent A) and of acidified acetonitrile (0.1% formic acid) (solvent B) was used as mobile phase with a constant flow rate of 0.6 mL/min, starting at 10% B and rising to 100% B in 20 min. […]

[8] = system: Streptomyces venezuelae ATCC 10712; assay: Confrontation assay B. velezensis GA1 / S. venezuelae on REM plate, UPLC-MS metabolite profiling of the agar; conditions: gelified REM, 3 days at 26°C
Description: Confrontation assays were performed on square Petri dishes (12 × 12 cm) with 40 mL of REM solid medium at 26°C (REM supplemented with 14 g/L of agar).
S. venezuelae ATCC 10712 was inoculated as stripes (1 × 12 cm) in the middle of the plate with 40 µL of spore suspension (10^7 spores/mL) and spread with a cotton swab. Next, B. velezensis GA1 cells were collected from fresh precultures as described and adjusted to OD600 nm 0.1. Then, 5 µL of B. velezensis GA1 suspension was spotted at 1 cm of the Streptomyces line. Control plates were done following the same procedure without the inoculation of either Bacillus or Streptomyces. Plates were then incubated for 3 days at 26°C in the dark. Pictures of the plates were then captured using a CoolPix camera (NIKKOR ×60 wide optical zoom extra-low dispersion vibration reduction 4.3–258.0 mm 1:33 to 6.5).
The extraction of the metabolites from the agar was performed as follows. For the confrontation experiment, we precisely sampled the area of agar (2 × 1 cm) near the colony of Bacillus or Streptomyces (the confrontation zone is 1 cm wide) with standardized plugs. For the in planta, we sampled the agar area (1 × 1 cm) near the tomato roots. In both cases, the agar samples were transferred to Eppendorf tubes and placed for 24 h at −20°C. Then, the agar was thawed at room temperature and centrifuged for 10 min at 13,000 rpm. The supernatants were then collected and filtered (0.22-µm pore size filters) before UPLC-MS analysis.
All UPLC-MS analyses were performed using an Agilent 1290 Infinity II coupled with a diode array detector and a mass detector (Jet Stream ESI-Q-TOF 6530) in positive mode with the parameters set up as follows: capillary voltage of 3.5 kV, nebulizer pressure of 35 lb/in^2, drying gas of 8 L/min, drying gas temperature of 300°C, flow rate of sheath gas of 11 L/min, sheath gas temperature of 350°C, fragmentor voltage of 175 V, skimmer voltage of 65 V, and octopole radiofrequency of 750 V. Accurate mass spectra were recorded in the m/z range of 300–1,700. For untargeted MS/MS, we used the same MS1 parameters as described. We added MS2 untargeted acquisition mode with the parameters as follows: MS/MS range 50–1,700 m/z; MS/MS scan rate 3 spectra/s; isolation width MS/MS medium (approx. 4 AMU), Decision Engine Native; fixed collision energies of 25 and 40 V for surfactin, 50 V for iturin, and 60 V for fengycin experiments; precursor selection: three for the surfactin experiment, four for the iturin and fengycin experiments, threshold 1,500 (Abs), isotope model common, active exclusion after two spectra and release after 0.5 min, sorting the precursors by charge state then abundance (charge state preference 1). For targeted MS/MS, we used the same MS1 parameters MS/MS range of 50–1,700 m/z or 50–3,200 (when required for Pseudomonas CLPs with mass >1,700 Da), MS/MS scan rate 3 spectra/s, isolation width MS/MS narrow (approx. 1.3 amu), and fixed collision energies 20, 40, and 60V. In all experiments, a C18 Acquity UPLC ethylene bridged hybrid column (2.1 mm × 50 mm × 1.7 µm; Waters Corporation, Milford, MA, USA) was used at a flow rate of 0.6 mL/min and a temperature of 40°C. The injection volume was 20 µL, and the diode array detector scanned a wavelength spectrum between 190 and 600 nm. Unless otherwise mentioned, a gradient of acidified water (0.1% formic acid) (solvent A) and of acidified acetonitrile (0.1% formic acid) (solvent B) was used as mobile phase with a constant flow rate of 0.6 mL/min, starting at 10% B and rising to 100% B in 20 min. Solvent B was kept at 100% for 4 min before going back to the initial ratio. MassHunter Workstation (version 10.0) and ChemStation software were used for data collection and analysis. For untargeted analysis of iturin and fengycin degradation products, we used the same solvent and flow rate, starting at 10% B to 20% in 2 min, then rising to 50% B at 14 min and 100% B at 25 min, followed by 100% B and 5 at 10% B at 6 min.

## C/C(=C/C=C/C=C/C(C)C(=O)O)NC(=O)CC(O)\C(C)=C/C=C\C=C(C)\C=C\C=C/C=C/CNC(=O)C(O)CC(C)C (centres unmarked) [bacillaene]
Streptomyces [1]
  toxicity toward Streptomyces: toxicity

## Fa Glu Leu Leu Val Asp Leu Leu
Streptomyces [2]
  fragment found: linear surfactin
[3]
  fragment found: Linear surfactin; also recorded: ELLVDLL; also recorded: LLVDLL
[4]
  cleaved bond: Fa-E
  fragment found: Linear surfactin
[5]
  cleaved bond: Fa-E and E-L and L-L and L-V
  fragment found: Linear surfactin, first_seen and FaEL
[6]
  fragment found: linear surfactins; also recorded: ELLVDLL

## VSLVVQLVDhbTIHseDabK (lariat or depsi) [sessilin, Pseudomonas cyclic lipopeptide, tested in Pseudomonas cell-free supernatant]
[7]
  degradation of Pseudomonas CLPs by Sv CFS: degraded

## difficidin
Streptomyces [1]
  toxicity toward Streptomyces: toxicity

## fengycin
[7]; pure CLPs (100 µM) incubated 24 h at 30°C with 4% (vol/vol) Sv CFS (grown on ISP2, 0.22-µm filtered), UPLC-MS/MS with feature-based molecular networking
  degradation of pure Bacillus CLPs by Sv CFS: degrades
[8]; UPLC-MS, MS/MS
  shorter CLP fragment detected in the confrontation zone but not in Bv monoculture: loss of the terminal isoleucine
[8]; agar extract of confrontation zone, UPLC-Q-TOF-MS peak areas, three biological replicates
  abundance of the CLP in the confrontation zone compared with monocultures: decrease in the abundance

## macrolactin
Streptomyces [1]
  toxicity toward Streptomyces: toxicity

## orfamide
[7]
  degradation of Pseudomonas CLPs by Sv CFS: degraded

## putisolvin
[7]
  degradation of Pseudomonas CLPs by Sv CFS: degraded

## xantholisin
[7]
  degradation of Pseudomonas CLPs by Sv CFS: degraded
